Measured values from patent US20060088560A1, “Cosmetic use of mangiferin” (LA[…] BIOLOGIE VEGETALE YVES ROCHER, priority 2004, published 2006).

Legend:
[1] = cited from earlier work
[2] = test system: HSP70; experiment: Preventive protection: HSP70 immunolabeling in normal human dermal fibroblasts treated with mangiferin before hot heat stress; type: cell-based
Protocol: Normal human dermal fibroblasts (NHDFs) are seeded (passage 3) onto glass Labtek culture chambers (8 chambers/slide) to a proportion of 10 000 cells/chamber and incubated for 10 hours in an incubator at 37° C., 5% CO2 and 95% humidity. The culture medium consists of DMEM devoid of phenol red (Invitrogen, ref. 31053028) supplemented with 10% fetal calf serum (FCS) (Invitrogen, ref 16010159, batch 40F1420D), 1% of a solution of non-essential amino acids (Invitrogen, ref 11140035), 100 μg/ml penicillin, 100 U/ml streptomycin, 2 mM L-gluthamine and 1% of a sodium pyruvate solution (Invitrogen, ref. 11360039).
The NHDFs are treated for 15 hours with mangiferin solubilized at 0.1% in DMSO, then diluted in the culture medium (DMEM with 1% FCS) to 2.10^−4%. A reference culture medium is also made on the same slide. To validate the study, a slide is treated in the same manner but the cells are not subjected to stress.
The cells are subsequently rinsed in Hanks Balanced Saline Solution (HBSS buffer Invitrogen, ref. 14025050) then placed under hot thermal stress conditions: incubation 1 hour at +45° C. in the HBSS solution (0.4 ml per chamber.).
After the stress, the cells are rinsed in the HBSS solution then incubated 8 hours in the culture medium (DMEM with 1% FCS), in an incubator at 37° C., 5% CO2 and 95% humidity.
The cells are rinsed in HBSS solution 8 hours after the stress. […]

[3] = test system: MMP1 metalloprotease; experiment: Assay of MMP1 metalloprotease (ELISA, per viable cell unit by MTT) in NHDFs after heat stimulation; type: cell-based, human; conditions: mangiferin 2.10^-4% w/v, MMP1 per viable cell unit vs reference without mangiferin
Source text: In this example, to illustrate the inhibitive action of mangiferin on the expression of MMP enzymes, the quantity of MMP1 enzymes present in normal human dermal fibroblasts (NHDFs) after a heat stress in the presence of mangiferin was compared with the quantity obtained for NHDFs in a reference medium subjected to the same conditions but without the presence of mangiferin.
This comparison was made for different conditions of heat treatment (no stress, hot stress, cold stress).
In each case, the tested NHDFs were placed in culture then treated under the following conditions:
The first day (day D), the NHDFs were seeded to a proportion of 160 000 cells/well/mL in 24-well plates in a normal medium.
The following day (day D+1), the culture medium was depleted of serum.
When the test was conducted in the presence of mangiferin, the treatment with mangiferin was complete, i.e. the mangiferin was added to the medium to a content of 2.10^−4 g/100 mL (2.10^−4% w/v) 24 hours before the heat stress, during the heat stress and 24 hours after the onset of heat stress.
On the contrary, no mangiferin at all was added to the references.
After these steps, 24 hours after the heat stress, the MMP1 present in the medium was assayed using a quantitative technique of ELISA type, with a commercial Amersham kit. In parallel, the number of viable cells in the medium was determined using the MTT colorimetric test. On the basis of these elements, a MMP1 content was determined per viable cell unit.
For each of the heat treatment conditions, a reduction in MMP1 content was observed per viable cell unit in the presence of mangiferin, compared with the content obtained in the references without mangiferin. In this respect, a percentage inhibition of MMP1 expression (Pi) is defined which is calculated using the following formula: Pi(as %)=(Tt−Tm)/Tt in which: • Tm designates the MMP1 content per viable cell unit in the presence of mangiferin; • Tt designates the MMP1 content per viable cell unit for the reference without mangiferin under the same heat treatment conditions.

[4] = test system: HSP70; experiment: Curative protection: HSP70 immunolabeling in normal human dermal fibroblasts treated with mangiferin after hot heat stress; type: cell-based
Protocol: The fibroblasts (NHDFS) are seeded (passage 3) onto glass Labtek culture chambers (8 chambers/slide) to a proportion of 10 000 cells/chamber and incubated for 10 hours in an incubator at 37° C., 5% CO2 and 95% humidity. The culture medium consists of DMEM devoid of phenol red (Invitrogen, ref. 31053028) supplemented with 10% fetal calf serum (FCS) (Invitrogen, ref 16010159, batch 40F1420D), 1% of a solution of non-essential amino acids (Invitrogen, ref 11140035), 100 μg/ml penicillin, 100 U/ml streptomycin, 2 mM L-gluthamine and 1% of a sodium pyruvate solution (Invitrogen, ref. 11360039).
The NHDFs are rinsed in the HBSS solution then incubated 15 hours in the culture medium (DMEM with 1% FCS), in an incubator at 37° C., 5% CO2 and 95% humidity.
The cells are subsequently rinsed in an HBSS solution (Invitrogen, ref. 14025050) then placed under conditions of hot thermal stress: incubation 1 hour at +45° C. in the HBSS solution (0.4 ml per chamber).
After the stress, the cells are rinsed in the HBSS solution then treated for 8 hours with the mangiferin solubilized in the DMSO, then diluted in the culture medium (DMEM with 1% FCS) to 2.10^−4%. A reference culture medium is also made on the same slide.
The cells are rinsed in an HBSS solution 8 hours after the stress. The culture chambers are removed and the cells left to dry under a laminar flow hood. […]

SMILES: O=c1c2cc(O)c(O)cc2oc2cc(O)c([C@@H]3O[C@H](CO)[C@@H](O)[C@H](O)[C@H]3O)c(O)c12 [mangiferin, C-glucoside of tetrahydroxy-1,3,6,7 xanthone]
- Solubility in alkaline liquids ([1]; alkaline liquids (salt formation by phenol OH groups)): soluble
- Solubility in cold water ([1]; cold water): scarcely soluble
- Labeling of the HSP70s ([2]; NHDFs treated with mangiferin 2.10^-4% for 15 hours before stress (1 hour at +45° C.), read 8 hours after stress, vs untreated stressed cells): further intensified
- Basic expression of the HSP70s (labeling) ([2]; NHDFs, no stress, mangiferin 2.10^-4% for 15 hours): not modified
- Percentage inhibition Pi of MMP1 expression ([3]; Cold heat stress: 10 min at −20° C.): 22%
- Percentage inhibition Pi of MMP1 expression ([3]; Hot heat stress: 30 min at +45° C.): 51%
- Percentage inhibition Pi of MMP1 expression ([3]; Hot heat stress: 30 min at +50° C.): 40%
- Percentage inhibition Pi of MMP1 expression ([3]; Hot heat stress: 1 h at +45° C.): 36%
- Percentage inhibition Pi of MMP1 expression ([3]; No heat stress: 1 h at +37° C.): 34%
- Labeling of the HSP70s ([4]; NHDFs treated with mangiferin 2.10^-4% for 8 hours after stress (1 hour at +45° C.), vs untreated stressed cells): reduced
- Basic expression of the HSP70s (labeling) ([4]; NHDFs, no stress, mangiferin 2.10^-4% for 8 hours): not modified
